In patent US8552064B2, “Suramin and derivatives thereof as topical microbicide and contraceptive” (Eastern Virginia Medical School, priority 2005, dated 2013):
In brackets after ≈: the same amount, converted by molar mass. Like-named read-outs stand apart in the source and are kept apart here.

What was measured:
sperm = assay: Sander Cramer sperm immobilization test; format: cell-based
Protocol: The Sander Cramer test was used to determine the effect on sperm immobilization as described in Sander F V and Cramer S D., Hum. Fertil. 6: 134-153 (1941). This test may be used to evaluate the sperm-immobilizing effectiveness of contraceptive compositions. Serial dilutions of each test composition were added to semen adjusted to a designated number, e.g., 60 million of motile sperm per milliliter at room temperature (i.e., 25° C.). The end point is the greatest dilution at which all of the sperm are immobilized within 20 seconds. Results are expressed as minimum effective concentration in milligrams per milliliter.

[1] = system: human sperm binding to zona pellucida; assay: Hemizona assay (HZA), human sperm-zona binding; format: cell-based
Protocol: The hemizona assay, as described in Burkman L. J., et al., Fertil. Steril., 49: 688-697 (1988), was used to measure the ability of sperm to undergo capacitation and bind to the zona pellucida of an oocyte. Briefly, in this assay, motile normal sperm were separated in media with bovine serum albumin, which triggers capacitation. Human motile sperm were separated using a swim-up technique and incubated with 1 mM suramin or solvent-control medium for 15 minutes in 100 μL medium droplets covered with mineral oil, at 37° C., 5% CO2. Sperm were then incubated with dead oocytes which are surrounded by the zona pellucida, an acellular coating of oocytes. Bisected hemizonae corresponding to one oocyte were placed each in the test (suramin) and control (solvent) droplets and incubated for an additional 4 hours. Sperm-hemizonae complexes were washed extensively and capacitated spermatozoa bound to the outer surface of the zonae and were counted under an inverted microscope. The Hemizona Index (HZI) was calculated by dividing the number of suramin-treated sperm bound to one hemizona by the number of untreated (control) sperm bound to the other hemizona.

[2] = target: sheep testicular hyaluronidase (Ovis aries, UniProt A0ACI6NV18); assay: Hyaluronic acid hydrolysis assay; format: biochemical
Chain of sheep testicular hyaluronidase (A0ACI6NV18 entry or part of it): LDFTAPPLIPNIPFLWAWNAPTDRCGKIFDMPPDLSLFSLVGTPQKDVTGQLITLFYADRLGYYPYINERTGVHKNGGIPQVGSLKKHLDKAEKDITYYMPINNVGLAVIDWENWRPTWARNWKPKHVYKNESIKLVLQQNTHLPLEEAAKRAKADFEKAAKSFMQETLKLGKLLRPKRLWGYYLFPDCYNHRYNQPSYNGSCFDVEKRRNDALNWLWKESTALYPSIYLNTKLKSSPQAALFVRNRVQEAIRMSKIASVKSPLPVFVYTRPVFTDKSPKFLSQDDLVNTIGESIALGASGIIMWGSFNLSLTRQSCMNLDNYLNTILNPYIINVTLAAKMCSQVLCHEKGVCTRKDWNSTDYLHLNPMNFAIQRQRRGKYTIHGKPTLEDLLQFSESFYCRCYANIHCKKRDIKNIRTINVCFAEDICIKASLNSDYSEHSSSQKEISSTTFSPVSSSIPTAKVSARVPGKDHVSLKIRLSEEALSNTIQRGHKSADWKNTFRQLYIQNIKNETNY
Text: A hyaluronic acid hydrolysis assay was used to assess the hyaluronidase inhibition properties of suramin sodium. Hyaluronidase is a critical sperm enzyme involved in cumulus penetration. Inhibition of this enzyme renders sperm incapable of transversing the egg vestments, thus impeding sperm-oocyte interaction and, ultimately, fertilization.
Hyaluronidase activity was quantitatively determined by measuring the extent of hyaluronic acid hydrolysis (i.e., the concentration of N-acetylglucosamine-reactive material formed from enzyme activity). Reaction mixtures containing the following were prepared: test compound (variable concentrations of suramin sodium); 0.1 M sodium acetate; 0.15 M sodium chloride; pH adjusted to 5.5; 7.2 units sheep testicular hyaluronidase (Sigma, Type III; H-2251) contained in an acetate buffer; 0.3 mg/ml hyaluronic acid (Sigma, from bovine vitreous humor; H-7630). The enzyme was preincubated with the test agent (1 mg/ml for screening purposes) for 10 minutes before starting the reaction by the addition of hyaluronic acid. The enzyme reaction was determined using the method of Aronson and Davidson (J. Biol. Chem. 241 437-40, 1967). […] The reaction product is determined calorimetrically with […] (Reissig et al., J. Biol. Chem. 217 959-966, […]) by measuring the absorbance at 545 nm.

HIV-1 Ba-L = assay: C-MAGI/Ba-L assay (viral entry inhibition, BaL); format: cell-based; settings: for IC50: Human immunodeficiency virus 1, BAL
Protocol: The C-MAGI/Ba-L assays were carried out with MAGI-CCR-5 cells. The cell line was maintained in DMEM medium containing 10% FBS, 100 U/ml penicillin, 300 μg/mL glutamate and selection antibiotics as indicated above. Before assay, the cells were placed in 96 well flat tissue culture plates at 1×10^4 cells per well, and incubated overnight in the absence of antibiotics. The next day, medium was removed, and virus and compound (100 μL virus (HIVBa-L)+100 μL compound) were added. The cultures were incubated for 2 hours to facilitate virus attachment. After this incubation, the medium is removed from the wells, replaced with fresh compound-free medium, washed twice and finally incubated at 37° C. for 2 days in fresh medium. Following incubation, the medium was removed and induction of β-galactosidase enzyme activity was detected by chemiluminescence. β-galactosidase activity was detected using a chemiluminescence substrate, following the manufacture's instructions (Tropix). The TC50 and IC50 are determined using linear regression and a therapeutic index or antiviral index calculated. The results of this assay are provided herein.

[3] = system: HIV-1 Ba-L in monocyte-derived dendritic cells; assay: Infection of T cells by HIV associated to dendritic cells (DC/T assay); format: cell-based; settings: for EC50: Human immunodeficiency virus 1, Dendritic cell
Protocol: Monocyte-derived dendritic cells (MO-DC), infected with the NSI/R5 strain Ba-L at 10-3 multiplicity of infection, were cultured alone or with autologous CD4(+) T cells at a ratio 1:1 or 1:10. A dilution series of suramin was added to the MO-DC, 1 hour prior to infection and remained present during infection. After infection, cells were extensively washed and compounds were added at the same concentrations as for the pre-incubation. Medium and compounds were refreshed twice a week. After 2 weeks, HIV Ag was measured in supernatants with ELISA and EC50 values (effective conc. 50%) were calculated using linear regression (Vanham G et al, AIDS 2000, 14: 2299-2311). The results of this assay are provided herein.

[4] = system: Chlamydia trachomatis (serotype E/UW-5/CX); assay: Chlamydia multiplication inhibition; format: cell-based
Protocol: Chlamydia multiplication inhibition was performed according to Cooper M. D. et al., J. Gen. Microbiol., 136: 1109-1115 (1990). Prior to experimentation, cryo-preserved Chlamydia trachomatis (serotype E/UW-5/CX) were quickly thawed (37° C.) and suspended by mild sonication. Serial 1:10 dilutions of the bacterial suspension were made, ranging from 10^−1 to 10^−7.
HeLa monolayers (on coverslips) were inoculated with 100 μl of the different dilutions of chlamydia (elementary bodies), in the presence or absence of test agent. The suramin compound was tested at 0.1, 1.0, 10, 100 and 1000 μg/ml. After 1 hour, the monolayers were washed to remove free chlamydia and test agent, and they were incubated for 48 hours.
Medium was removed, and the HeLa monolayers were fixed in methanol, washed, and treated with Kallsted Chlamydia Culture Confirmation fluorescein-conjugated Monoclonal Antibody. Reaction of labeled antibody with the cells was carried out for 30 minutes at room temperature (i.e., 25° C.) (no light) in a humidified chamber. The cells were washed with water; a drop of mounting medium is placed on a glass slide, and the coverslip was applied. Inclusions due to chlamydial infection were visualized with a fluorescent microscope as green fluorescence. Data was reported as the number of inclusion forming units per ml of undiluted chlamydial titer, and were adjusted to control values of 2.6×10^7 IFU/ml for control cultures (no test agent) in each experiment. […] After logarithmic transformation of all data, dose-response curves were created with curve-fitting (TableCurve 2D, version 3.02; Jandel Scientific) software.

SMILES: Cc1ccc(C(=O)Nc2ccc(S(=O)(=O)O)c3cc(S(=O)(=O)O)cc(S(=O)(=O)O)c23)cc1NC(=O)c1cccc(NC(=O)Nc2cccc(C(=O)Nc3cc(C(=O)Nc4ccc(S(=O)(=O)O)c5cc(S(=O)(=O)O)cc(S(=O)(=O)O)c45)ccc3C)c2)c1 [Suramin, 8,8′-(carbonylbis(imino-3,1-phenylenecarbonylimino(4-methyl-3,1-phenylene)carbonylimino))bis-1,3,5-naphthalene trisulfonic acid]
- sperm-immobilizing activity (sperm; 20 mg/mL): no significant sperm-immobilizing activity
- sperm motility in Sander Cramer test (sperm; 10 and 5 mg/mL): all spermatozoa from samples were motile
- Potency, Motility (Sander Cramer, Motility, CASA) (sperm; highest concentration = 25 mg/mL): None
- Potency, ZP binding (HZA) [1]: High
- Hemizona Index (HZI) ([1]; 1 mM, n=9): 0.08±0.01
- inhibition at 1000 µM ([1]; Homo sapiens, Sperm, 1 mM): 92%
- Potency, Hyaluronidase (Hyaluronic Acid Hydrolysis) [2]: High
- Potency, HIV-1 MAGI-Bal (HIV-1 Ba-L): High
- IC50 (HIV-1 Ba-L; HeLa, 2 h, read-out: IC50, Cell-Free Strains BaL, CD4/coreceptor expressing HeLa cells, incubation 2 hours): 5.5 mg/L (≈ 4.24 µM)
- IC50 (HIV-1 Ba-L; 2h-incubation, read-out: IC50 against Bal): 0.39 mg/L (≈ 0.301 µM)
- Potency, HIV-1 DC [3]: High
- IC50 ([3]; Human immunodeficiency virus 1, BAL, Dendritic cell, read-out: IC50 dendritic cell (DC)/T lymphocyte model): 17 mg/L (≈ 13.1 µM)
- EC50 ([3]; DC infected with BaL cultured alone, read-out: EC50, Dendritic Cells (DC)): 56 ± 6 mg/L (≈ 43.2 µM)
- EC50 ([3]; DC infected with BaL with autologous T lymphocytes 1:1, read-out: EC50, DC + T Cells (1:1)): 57.5 ± 5 mg/L
- EC50 ([3]; DC infected with BaL with autologous T lymphocytes 1:10, read-out: EC50, DC + T Cells (1:10)): 17 ± 3 mg/L
- Potency, Chlamydia (CT) Multiplication [4]: High
- inhibition of CT multiplication ([4]; 2 mg/mL): inhibition was essentially complete
- titer ([4]; 2 mg/mL, control titer 1×10^−5): 0.08×10^−5
- inhibition at 100 µg/mL ([4]; Chlamydia trachomatis, read-out: inhibition of CT multiplication): 75%
- inhibition at 2000 µg/mL ([4]; Chlamydia trachomatis, 2 mg/mL, read-out: inhibition of CT multiplication): 100%
- IC50 ([4]; Chlamydia trachomatis, read-out: IC50 Chlamydia (CT) Multiplication): 28 mg/L (≈ 21.6 µM)
